Source: patent US20030203819A1, “Synergistically acting herbicidal mixtures” (priority 1998, published 2003)
Where two headings read alike, the source gives them in different places.

Assays:
Assay type in all cases: in vivo
Lolium perenne = experiment: Herbicidal action in the field (post-emergence treatment)
Source text: (§1) The mixtures according to the invention were applied pre- or post-emergence (foliar treatment). The herbicidal compounds of component B were applied in the formulation in which they are present as commercially available product.
(§2) Some of the experiments were greenhouse experiments and some were field trials on mini plots (on a site with sandy loam (pH 6.2 to 7.0) or sandy clay (pH 5.0 to 6.7) as the soil).
(§3) The harmful plants differed with regard to size and developmental state; on average, they were 5 to 20 cm long, depending on the growth habit.
(§4) The herbicidally active compounds of components A) and B) were applied in succession or jointly, in the latter case in some cases as a tank mix and in some cases as a readymix, in the form of emulsions, aqueous solutions or suspensions, the vehicle being water ([…]). In the case of the field trials, application was effected with the aid of a mobile plot sprayer.
(§5) The test period extended over 3 to 8 weeks, and the stands were also observed at later points in time.
(§6) Damage by the herbicidal compositions was evaluated with reference to a scale of 0% to 100% in comparison with untreated control plots. 0 means no damage and 100 means complete destruction of the plants.
(§7) In these examples, the value E at which only an additive effect of the individual active ingredients is to be expected was calculated by the method of S. R. Colby (Calculating synergistic and antagonistic responses of herbicide combinations, Weeds 15, 20 pp (1967).

Abutilon theophrasti [1] = experiment: as above
Source text: as §1, §2, §3, §4, §5, §6, §7

Alopecurus myosuroides = experiment: as above
Source text: as §1, §2, §3, §4, §5, §6, §7

Anthemis mixta = experiment: as above; details: Ia.3 75 g/ha a.s.
Source text: as §1, §2, §3, §4, §5, §6, §7

Bidens pilosa = experiment: as above
Source text: as §1, §2, §3, §4, §5, §6, §7

Brachiaria plantaginea = experiment: as above; details: Ia.3 75 g/ha a.s.
Source text: as §1, §2, §3, §4, §5, §6, §7

Chenopodium album = experiment: as above; details: Ia.3 50 g/ha a.s.
Source text: as §1, §2, §3, §4, §5, §6, §7

Cyperus species = experiment: as above
Source text: as §1, §2, §3, §4, §5, §6, §7

Digitaria adscendens = experiment: as above
Source text: as §1, §2, §3, §4, §5, §6, §7

Digitaria sanguinalis [2] = experiment: as above; details: Ia.3 50 g/ha a.s.
Source text: as §1, §2, §3, §4, §5, §6, §7

Echinochloa crus-galli [3] = experiment: as above; details: Ia.3 75 g/ha a.s.
Source text: as §1, §2, §3, §4, §5, §6, §7

Galium aparine = experiment: as above
Source text: as §1, §2, §3, §4, §5, §6, §7

Geranium carolinianum = experiment: as above; details: Ia.3 150 g/ha a.s.
Source text: as §1, §2, §3, §4, §5, §6, §7

Ipomoea acuminata = experiment: as above
Source text: as §1, §2, §3, §4, §5, §6, §7

[4] = test system: Ipomoea purpurea var. diversifolia; experiment: as above
Source text: as §1, §2, §3, §4, §5, §6, §7

Phalaris spec. = experiment: as above; details: Ia.3 75 g/ha a.s.
Source text: as §1, §2, §3, §4, §5, §6, §7

Richardia brasiliensis = experiment: as above; details: Ia.3 75 g/ha a.s.
Source text: as §1, §2, §3, §4, §5, §6, §7

Setaria faberi = experiment: as above
Source text: as §1, §2, §3, §4, §5, §6, §7

Setaria viridis [5] = experiment: as above; details: Ia.3 100 g/ha a.s.
Source text: as §1, §2, §3, §4, §5, §6, §7

Sorghum bicolor = experiment: as above; details: Ia.3 (title: Ia.33) 75 g/ha a.s. (Table 68)
Source text: as §1, §2, §3, §4, §5, §6, §7

Stellaria media = experiment: as above
Source text: as §1, §2, §3, §4, §5, §6, §7

Abutilon theophrasti [6] = experiment: Herbicidal action in the greenhouse (post-emergence treatment); details: Ia.3 15.6 g/ha a.s.
Source text: as §1, §2, §3, §4, §5, §6, §7

Amaranthus retroflexus [7] = experiment: as above; details: Amaranthus retroflexus, post-emergence
Source text: as §1, §2, §3, §4, §5, §6, §7

Ipomoea ssp. = experiment: as above
Source text: as §1, §2, §3, §4, §5, §6, §7

Setaria viridis [8] = experiment: as above; details: Ia.3 15.6 g/ha a.s.
Source text: as §1, §2, §3, §4, §5, §6, §7

Veronica ssp. = experiment: as above; details: Ia.3 31.2 g/ha a.s.
Source text: as §1, §2, §3, §4, §5, §6, §7

Amaranthus retroflexus [9] = experiment: Herbicidal action in the greenhouse (pre-emergence treatment); details: Ia.3 31.2 g/ha a.s.
Source text: as §1, §2, §3, §4, §5, §6, §7

Cyperus iria [10] = experiment: as above; details: Ia.3 31.2 g/ha a.s.
Source text: as §1, §2, §3, §4, §5, §6, §7

Digitaria sanguinalis [11] = experiment: as above
Source text: as §1, §2, §3, §4, §5, §6, §7

Echinochloa crus-galli [12] = experiment: as above; details: Ia.3 62.5 g/ha a.s.
Source text: as §1, §2, §3, §4, §5, §6, §7

Setaria viridis [13] = experiment: as above; details: Ia.3 15.6 g/ha a.s.
Source text: as §1, §2, §3, §4, §5, §6, §7

Cyperus iria [14] = experiment: Herbicidal action in the field (post-emergence treatment); details: benthiocarb 3000 g/ha a.s.
Source text: as §1, §2, §3, §4, §5, §6, §7

Triticum aestivum = experiment: Phytotoxicity to crop plant in the greenhouse (post-emergence treatment); details: Table 83, Dimethenamide 500 g/ha a.s.
Source text: as §1, §2, §4, §5, §6, §7

For `C[n+]1ccc(-c2cc[n+](C)cc2)cc1` [paraquat-dichloride, reference compound], the Damage (Lolium perenne; paraquat-dichloride 400 g/ha a.s.) was 97%.
Compound `Cn1ncc(C(=O)c2ccc(S(C)(=O)=O)c(C3=NOCC3)c2Cl)c1O` [Ia.3, 4-[2-chloro-3-(4,5-dihydroisoxazol-3-yl)-4-methylsulfonylbenzoyl]-1-methyl-5-hydroxy-1H-pyrazole] has a Damage (Abutilon theophrasti [1]; Ia.3 50 g/ha a.s. (Table 5)) of 85%, a Damage (Abutilon theophrasti [1]; Ia.3 75 g/ha a.s. (Table 66)) of 85% and a Damage (Alopecurus myosuroides; Ia.3 7.5 g/ha a.s. (Table 7)) of 10%. The Damage (Alopecurus myosuroides; Ia.3 75 g/ha a.s. (Table 8)) was 10%, the Damage (Anthemis mixta) was 68% and the Damage (Bidens pilosa; Ia.3 75 g/ha a.s. (Table 13)) was 30%. For the same compound, the Damage (Bidens pilosa; Ia.3 75 g/ha a.s. (Table 58)) was 25%, the Damage (Bidens pilosa; Ia.3 75 g/ha a.s. (Table 69)) was 25% and the Damage (Brachiaria plantaginea) was 96%. For the same compound, the “Damage (%)” value (Brachiaria plantaginea; Table 80, Brachiaria plantaginea, field, post-emergence) was 95%, the Damage (Chenopodium album) was 92% and the Damage (Cyperus species; Ia.3 75 g/ha a.s. (Table 70)) was 5%. For the same compound, the Damage (Cyperus species; Ia.3 75 g/ha a.s. (Table 71)) was 0%, the Damage (Digitaria adscendens; Ia.3 75 g/ha a.s. (Table 33)) was 90% and the Damage (Digitaria adscendens; Ia.3 75 g/ha a.s. (Table 37)) was 90%. It also gave a Damage (Digitaria sanguinalis [2]) of 57%, a Damage (Echinochloa crus-galli [3]) of 98% and a Damage (Galium aparine; Ia.3 75 g/ha a.s. (Table 9)) of 63%. The Damage (Galium aparine; Ia.3 75 g/ha a.s. (Table 54)) was 60%, the Damage (Galium aparine; Ia.3 75 g/ha a.s. (Table 64)) was 60% and the Damage (Geranium carolinianum) was 30%. It also gave a Damage (Ipomoea acuminata; Ia.3 75 g/ha a.s. (Table 15)) of 25%, a Damage (Ipomoea acuminata; Ia.3 75 g/ha a.s. (Table 29)) of 25% and a Damage (Ipomoea acuminata; Ia.3 75 g/ha a.s. (Table 35)) of 25%. The Damage (Ipomoea acuminata; Ia.3 75 g/ha a.s. (Table 76)) was 23%, the Damage ([4]; Ia.3 75 g/ha a.s. (Table 16)) was 93% and the Damage ([4]; Ia.3 75 g/ha a.s. (Table 65)) was 94%. The Damage (Lolium perenne; Ia.3 75 g/ha a.s.) was 10%, the Damage (Phalaris spec.) was 20% and the Damage (Richardia brasiliensis) was 70%. It also gave a Damage (Setaria faberi; Ia.3 75 g/ha a.s. (Table 59)) of 99%, a Damage (Setaria faberi; Ia.3 75 g/ha a.s. (Table 67)) of 95% and a Damage (Setaria viridis [5]) of 75%. For the same compound, the Damage (Sorghum bicolor) was 78%, the Damage (Stellaria media; Ia.3 75 g/ha a.s. (Table 14)) was 91% and the Damage (Stellaria media; Ia.3 75 g/ha a.s. (Table 63)) was 91%. The Damage (Abutilon theophrasti [6]) was 70%, the pest or weed control at 15.6 g/ha (Amaranthus retroflexus [7]; read-out: Damage, Ia.3 15.6 g/ha a.s. (Table 10)) was 80% and the pest or weed control at 15.6 g/ha (Amaranthus retroflexus [7]; read-out: Damage, Ia.3 15.6 g/ha a.s. (Table 25)) was 55%. For the same compound, the Damage (Ipomoea ssp.; Ia.3 31.2 g/ha a.s. (Table 27)) was 75%, the Damage (Ipomoea ssp.; Ia.3 31.2 g/ha a.s. (Table 74)) was 75% and the Damage (Setaria viridis [8]) was 80%. The Damage (Veronica ssp.) was 80%, the Damage (Amaranthus retroflexus [9]) was 40% and the Damage (Cyperus iria [10]) was 50%. The Damage (Digitaria sanguinalis [11]; Ia.3 62.5 g/ha a.s. (Table 40)) was 60%, the Damage (Digitaria sanguinalis [11]; Ia.3 62.5 g/ha a.s. (Table 47)) was 60% and the Damage (Echinochloa crus-galli [12]) was 60%. It also gave a Damage (Setaria viridis [13]) of 20%.
`CCN(CC)C(=O)SCc1ccc(Cl)cc1` [benthiocarb] was tested, and the Damage (Cyperus iria [14]) was 50%.
With `COCC(C)N(C(=O)CCl)c1c(C)csc1C` (stereo not shown) [Dimethenamide] the “Phytotoxicity (%)” value (Triticum aestivum) was 0%.
